{
  "source": "paper PMC4448982",
  "about": "“LP-925219 maximizes urinary glucose excretion in mice by inhibiting both renal SGLT1 and SGLT2” (Pharmacology Research & Perspectives, 2015)",
  "origin": "cited, not measured here",
  "key": {"SGLT2": {"system": "SGLT2", "parameters": "method as in Rieg et al. [2014]", "conditions": "ref Rieg et al. [2014], cited from earlier work"}, "[1]": {"parameters": "method as in Powell et al. [2014]", "conditions": "mouse; ref Powell et al. [2014]; cited from earlier work"}, "[2]": {"parameters": "method as in Powell et al. [2014]", "conditions": "human; ref Powell et al. [2014]; cited from earlier work"}},
  "note": "Where two headings read alike, the source gives them in different places.",
  "data": [
    {"smiles": "OC[C@H]1O[C@@H](c2ccc(Cl)c(Cc3ccc(O[C@H]4CCOC4)cc3)c2)[C@H](O)[C@@H](O)[C@@H]1O", "note": "[empagliflozin]", "values": [
      {"measurement": "reduction of glucose reabsorption", "setting": "SGLT2; SGLT1 KO mice", "value": 100, "unit": "%"},
      {"measurement": "reduction of glucose reabsorption", "setting": "SGLT2; WT mice", "value": 56, "unit": "%"}
    ]},
    {"smiles": "CCOc1ccc(Cc2cc([C@@H]3O[C@H](SC)[C@@H](O)[C@H](O)[C@H]3O)ccc2Cl)cc1", "note": "[sotagliflozin]", "values": [
      {"measurement": "plasma protein binding", "setting": "[1]", "value": "> 90", "unit": "%"},
      {"measurement": "plasma protein binding", "setting": "[2]", "value": "> 90", "unit": "%"}
    ]}
  ]
}
